Measured values from ChEMBL document CHEMBL1137802, “Specific antioxidant activity of caffeoyl derivatives and other natural phenolic compounds: LDL protection against oxidation and decrease in the proinflammatory lysophosphatidylcholine production” (J Nat Prod, 2001).
Activity calls are given as the source filed them. The calls are words filed in the database; no cut-off is given here.

Legend:
Assay type in all cases: functional, cell-free
[1] = Antioxidant activity against Cu2+-induced lipid peroxidation in human plasma LDL preincubated for 1 hr before Cu2+ challenge
[2] = Antioxidant activity against AAPH-induced lipid peroxidation in human plasma LDL preincubated for 1 hr before AAPH challenge
[3] = Antioxidant activity against AAPH-induced lipid peroxidation in human plasma LDL at 0.01 to 0.1 umol/L preincubated for 1 hr before AAPH challenge
[4] = Antioxidant activity against AAPH-induced lipid peroxidation in human plasma LDL at 0.2 umol/L preincubated for 1 hr before AAPH challenge
[5] = Antioxidant activity against AAPH-induced lipid peroxidation in human plasma LDL at 1 umol/L preincubated for 1 hr before AAPH challenge
[6] = Antioxidant activity against Cu2+-induced lipid peroxidation in human plasma LDL at 0.01 to 0.1 umol/L preincubated for 1 hr before Cu2+ challenge

For `COc1cc(/C=C/C(=O)O)cc(OC)c1O`, the Activity [1] was 47.4 µM/L.
`O=C(/C=C/c1ccc(O)c(O)c1)O[C@@H]1C[C@](O)(C(=O)O)C[C@@H](O)[C@H]1O` gave an Activity [2] of 55.3 µM/L and an Activity [1] of 156 µM/L.
In the case of `COc1cc(/C=C/C(=O)O)ccc1O`, the Activity [1] is reported as 8.5 µM/L.
In the case of `O=C(O)c1cc(O)c(O)c(O)c1`, the Activity [3] is reported as “Active”, the Activity [4] is reported as 90 µM/L and the Activity [5] is reported as 30 µM/L. The Activity [6] was “Active”.
Work on `Oc1cc(O)c2c(c1)OC(c1ccc(O)c(O)c1)C(O)C2` (stereo unspecified) yielded an Activity [2] of 156 µM/L and an Activity [1] of 34.6 µM/L.
For `O=C(O)/C=C/c1ccc(O)c(O)c1`, the Activity [2] was 73.6 µM/L and the Activity [1] was 54 µM/L.
In the case of `CC(=O)Oc1ccccc1C(=O)O`, the Activity [1] is reported as “inactive”.
Work on `O=C(O)/C=C/c1ccc(O)cc1` yielded an Activity [1] of 0.6 µM/L.
Work on `O=C(/C=C/c1ccc(O)c(O)c1)O[C@H](Cc1ccc(O)c(O)c1)C(=O)O` yielded an Activity [1] of 150 µM/L.
With `O=C(O)c1ccccc1O` the Activity [1] was “inactive”.
`Oc1cc(O)c2c(c1)O[C@H](c1ccc(O)c(O)c1)[C@H](O)C2` gave an Activity [1] of 37.1 µmol/L.
In the case of `O=C(O)c1ccc(O)c(O)c1`, the Activity [3] is reported as “Active” and the Activity [6] is reported as “Active”.
In the case of VITAMIN E, the Activity [1] is reported as 7.2 µM/L.
`O=C(/C=C/c1ccc(O)c(O)c1)OC(C(=O)O)C(O)C(=O)O` (stereo unspecified) showed an Activity [1] of 125 µM/L.
